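Five compound concentrations were applied to cells in 96-well plates for 48 hours; endpoints were derived by simple linear interpolation of the resulting dose-response curve. TGI is the concentration that stops growth completely.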
What was measured:
Assay in all cases: NCI tumour cell line growth inhibition, 48 h
[1] = test system: UACC-257 melanoma
[2] = test system: SW-620 colon
[3] = test system: IGROV1 ovarian
[4] = test system: HOP-92 NSCLC
[5] = test system: HCT-116 colon
[6] = test system: HOP-62 NSCLC
[7] = test system: COLO 205 colon
[8] = test system: HT29 colon
[9] = test system: DU-145 prostate
[10] = test system: A498 renal

`COc1ccc(/C=C2\CN(C)Cc3c2[nH]c(=O)c(C#N)c3-c2ccc(OC)cc2)cc1` was tested, and the TGI [1] was > 100 µM, the TGI [2] was > 100 µM and the TGI [3] was > 100 µM. The TGI [4] was > 100 µM, the TGI [5] was > 100 µM and the TGI [6] was > 100 µM. The TGI [7] was > 100 µM, the TGI [8] was > 100 µM and the TGI [9] was > 100 µM.
Compound `CC(=O)NC1=C(C)C(=O)c2c(nc3n2CC[C@H]3OC(C)=O)C1=O` has a TGI [1] of 2.2 µM, a TGI [2] of 3.26 µM and a TGI [3] of 8.71 µM. For the same compound, the TGI [10] was 30.5 µM, the TGI [4] was 1.83 µM and the TGI [5] was 3.14 µM. It also gave a TGI [6] of 28.3 µM, a TGI [7] of 3.36 µM and a TGI [8] of 8.13 µM. It also gave a TGI [9] of 29.4 µM.
With `CCS(=O)(=O)c1c2cc(OC)ccc2nc2ccc(OC)cc12` the TGI [1] was > 100 µM, the TGI [2] was > 100 µM and the TGI [3] was > 100 µM. The TGI [10] was > 100 µM, the TGI [4] was > 100 µM and the TGI [5] was > 100 µM. The TGI [6] was > 100 µM, the TGI [7] was > 100 µM and the TGI [8] was > 100 µM. For the same compound, the TGI [9] was > 100 µM.
For `COc1cc(C(SCc2ccccc2)SCc2ccccc2)ccc1O`, the TGI [2] was > 10 µM, the TGI [3] was > 10 µM and the TGI [10] was > 10 µM. For the same compound, the TGI [4] was > 10 µM, the TGI [5] was > 10 µM and the TGI [6] was > 10 µM. For the same compound, the TGI [7] was > 10 µM, the TGI [8] was > 10 µM and the TGI [9] was > 10 µM.
In the case of `O=C(C#Cc1cn(C2CC(O)C(CO)O2)c(=O)[nH]c1=O)c1ccccc1` (centres undefined), the TGI [1] is reported as > 100 µM, the TGI [2] is reported as 50.4 µM and the TGI [3] is reported as > 100 µM. The TGI [4] was 53.2 µM, the TGI [5] was > 100 µM and the TGI [6] was > 100 µM. For the same compound, the TGI [7] was 65.7 µM, the TGI [8] was > 100 µM and the TGI [9] was > 100 µM.
`O=C(CCCn1ccnc1[N+](=O)[O-])NCCn1ccnc1[N+](=O)[O-]` was tested, and the TGI [1] was > 100 µM, the TGI [2] was > 100 µM and the TGI [3] was > 100 µM. The TGI [5] was > 100 µM, the TGI [6] was > 100 µM and the TGI [7] was > 100 µM. For the same compound, the TGI [8] was > 100 µM and the TGI [9] was > 100 µM.
In the case of `CN1CCCCC(C(O)(c2ccccc2)c2ccccc2)C1=O` (centres undefined), the TGI [1] is reported as > 100 µM, the TGI [2] is reported as 25.9 µM and the TGI [3] is reported as > 100 µM. The TGI [10] was > 100 µM, the TGI [4] was > 100 µM and the TGI [5] was 56.9 µM. The TGI [6] was > 100 µM, the TGI [7] was > 100 µM and the TGI [8] was > 100 µM.
With `Cn1ccc(C(=O)NCCCCCNC(=O)c2ccn(C)c(=O)c2O)c(O)c1=O` the TGI [1] was > 100 µM, the TGI [2] was > 100 µM and the TGI [10] was > 100 µM. The TGI [4] was > 100 µM, the TGI [5] was > 100 µM and the TGI [7] was > 100 µM. The TGI [8] was > 100 µM and the TGI [9] was > 100 µM.
In the case of `CCOC12SC(=Nc3ccc(C)cc3)NN1C(=S)N(C)N=C2C` (centres undefined), the TGI [1] is reported as > 100 µM, the TGI [2] is reported as > 100 µM and the TGI [3] is reported as > 100 µM. The TGI [10] was > 100 µM, the TGI [4] was > 100 µM and the TGI [5] was > 100 µM. The TGI [6] was > 100 µM, the TGI [7] was > 100 µM and the TGI [8] was > 100 µM.
With `O=c1[nH]c2ccccc2c2oc(-c3ccccc3)nc12` the TGI [1] was > 100 µM, the TGI [2] was 58.1 µM and the TGI [3] was > 100 µM. For the same compound, the TGI [10] was 59.5 µM, the TGI [4] was 56.7 µM and the TGI [5] was 69.3 µM. For the same compound, the TGI [6] was 39 µM, the TGI [7] was 37.6 µM and the TGI [8] was > 100 µM.
For `COC1/C=C/C(C)C(C(C)C(OC)C(C)CCC(=O)C(C)C(C/C=C/N(C)C=O)OC)OC(=O)/C=C/C=C(\C)CC(OC)C(OC)C2=CC(=O)O[C@@H](C(C)C(OC)CC(OC)/C=C/C(C)C(O)C1)[C@H]2O` (some centres undefined), the TGI [1] was 0.338 µM, the TGI [2] was 0.343 µM and the TGI [10] was 0.233 µM. It also gave a TGI [4] of 0.115 µM, a TGI [5] of 0.207 µM and a TGI [6] of 0.218 µM. For the same compound, the TGI [8] was 2.15 µM.
Work on `Cc1cc([N+](=O)[O-])ccc1N=NC(=O)NNc1ccc([N+](=O)[O-])cc1C` yielded a TGI [1] of 39.4 µM, a TGI [2] of 33.7 µM and a TGI [3] of 33.8 µM. The TGI [10] was 27.2 µM, the TGI [5] was 28.2 µM and the TGI [6] was 29 µM. It also gave a TGI [8] of 45.6 µM and a TGI [9] of 30.1 µM.
In the case of `COc1ccc2c(c1)-c1oc3ccccc3c(=O)c1CO2`, the TGI [1] is reported as 99.3 µM, the TGI [2] is reported as > 100 µM and the TGI [3] is reported as > 100 µM. The TGI [5] was > 100 µM, the TGI [6] was > 100 µM and the TGI [7] was > 100 µM. The TGI [8] was > 100 µM and the TGI [9] was > 100 µM.
In the case of `CS(=O)(=O)O.[Ag]`, the TGI [1] is reported as 24.4 µM, the TGI [2] is reported as 19.5 µM and the TGI [3] is reported as 13.7 µM. It also gave a TGI [10] of 40 µM, a TGI [5] of 20 µM and a TGI [6] of 65.9 µM. For the same compound, the TGI [7] was 4.84 µM, the TGI [8] was 39.3 µM and the TGI [9] was 34.2 µM.
With `COC(=O)n1c(CBr)c(Br)c2ccccc21` the TGI [1] was > 100 µM, the TGI [2] was > 100 µM and the TGI [3] was 93.1 µM. The TGI [4] was 68 µM, the TGI [5] was > 100 µM and the TGI [6] was 54 µM. The TGI [7] was > 100 µM and the TGI [8] was > 100 µM.
For `Nc1nc2cc(CNc3ccc(C(=O)NC(CCC(=O)O)C(=O)O)cc3)ccc2nc1-c1ccccc1` (centres undefined), the TGI [1] was > 10 µM, the TGI [2] was > 10 µM and the TGI [3] was > 10 µM. For the same compound, the TGI [10] was > 10 µM, the TGI [5] was > 10 µM and the TGI [6] was > 10 µM. For the same compound, the TGI [7] was > 10 µM, the TGI [8] was > 10 µM and the TGI [9] was > 10 µM.
`NC(=O)NCCCC(NC(=O)OCCCCCn1ccc(=O)[nH]c1=O)C(=O)O` (centres undefined) was tested, and the TGI [1] was > 100 µM, the TGI [2] was > 100 µM and the TGI [3] was > 100 µM. The TGI [4] was > 100 µM, the TGI [5] was > 100 µM and the TGI [6] was > 100 µM. For the same compound, the TGI [7] was > 100 µM, the TGI [8] was > 100 µM and the TGI [9] was > 100 µM.
`CC(=O)NC1=C(NCc2ccc(Cl)cc2)C(=O)c2ccccc2C1=O` showed a TGI [1] of 12.4 µM, a TGI [2] of 13.6 µM and a TGI [3] of 49.6 µM. For the same compound, the TGI [5] was 9.35 µM, the TGI [6] was > 50 µM and the TGI [7] was 11.4 µM. The TGI [8] was > 50 µM.
In the case of `CC(=O)Nc1ccc(-c2nnc(SCC(=O)Nc3ccccc3C)o2)cc1`, the TGI [1] is reported as > 100 µM, the TGI [2] is reported as > 100 µM and the TGI [3] is reported as > 100 µM. For the same compound, the TGI [4] was > 100 µM, the TGI [5] was 29.4 µM and the TGI [6] was > 100 µM. The TGI [7] was > 100 µM and the TGI [8] was > 100 µM.
In the case of `CCOC(=O)C(NCc1cccc(C(F)(F)F)c1)(NC(=O)c1ccccc1)C(F)(F)F` (centres undefined), the TGI [1] is reported as 68.7 µM, the TGI [2] is reported as > 100 µM and the TGI [3] is reported as 66.9 µM. The TGI [4] was 64.7 µM, the TGI [5] was > 100 µM and the TGI [6] was > 100 µM. The TGI [7] was 29.9 µM, the TGI [8] was 48.5 µM and the TGI [9] was > 100 µM.
With `COc1ccc2c(c1)CC[C@@H]1[C@@H]2CC[C@]2(C)C(=O)/C(=C/c3cc(OC)c(OC)c(OC)c3)C[C@@H]12` the TGI [2] was > 100 µM, the TGI [10] was > 100 µM and the TGI [4] was 45.4 µM. For the same compound, the TGI [5] was > 100 µM, the TGI [6] was 30.7 µM and the TGI [7] was > 100 µM. For the same compound, the TGI [9] was > 100 µM.
`COc1cc2c(c(OC)c1OC)-c1ccc(SC)c(=O)cc1C(CC(=O)Oc1cccc(C#N)c1)C2` (centres undefined) was tested, and the TGI [1] was > 100 µM, the TGI [2] was > 100 µM and the TGI [3] was > 100 µM. The TGI [10] was 0.522 µM, the TGI [4] was > 100 µM and the TGI [5] was 5.66 µM. The TGI [6] was > 100 µM, the TGI [7] was 3.41 µM and the TGI [8] was 0.796 µM.
`CC(=O)OCC1OC(c2nnc(C)o2)=CC(OC(C)=O)C1OC(C)=O` (centres undefined) was tested, and the TGI [1] was > 100 µM, the TGI [2] was > 100 µM and the TGI [3] was > 100 µM. For the same compound, the TGI [10] was > 100 µM, the TGI [5] was > 100 µM and the TGI [6] was > 100 µM. For the same compound, the TGI [7] was > 100 µM, the TGI [8] was > 100 µM and the TGI [9] was > 100 µM.
For `O=C(O)c1ccc(C2C3C=CC(C3)C2[N+](=O)[O-])cc1` (centres undefined), the TGI [1] was > 100 µM, the TGI [2] was > 100 µM and the TGI [3] was > 100 µM. For the same compound, the TGI [10] was > 100 µM, the TGI [6] was > 100 µM and the TGI [7] was > 100 µM. For the same compound, the TGI [8] was > 100 µM.

From PubChem BioAssay (NCI)
